Where two headings read alike, the source gives them in different places.
What was measured:
[1] = tested on: spontaneous hypertensive rats (SHR); experiment: Hypotensive Action: systolic pressure from tail artery of SHR after oral administration 10 mg/Kg once a day for 2 days; format: in vivo, rat; conditions: oral 10 mg/Kg, * = significant vs control, P = 0.01
Procedure: A test compound suspended in a gum arabic solution was orally administered once a day, at a dose of 10 mg/Kg (body weight), for 2 days, to groups of spontaneous hypertensive rats (hereinafter referred to as "SHR") (about 30 weeks old; systolic pressure=about 230 mm Hg), each group consisting of 6 rats.
The systolic pressure was measured from the tail artery of SHR under no anesthesia before the administration and 6 hours after the time of administration by using a continuous tonometer (Shimazu Tonometer Model SCS-301 manufactured by Shimazu Seisakusho K.K.). An aqueous solution of gum arabic alone was administered to the rats of the control group.

[2] = tested on: spontaneous hypertensive rats (SHR); experiment: as above; format: in vivo, rat; conditions: oral 10 mg/Kg, * = significant vs control, P = 0.01; remark: listed apart in the source
[3] = Acute Toxicity: LD50 in rats of the SD series, 14 days observation; format: in vivo; conditions: rat, in vivo, male
Excerpt: (§1) Groups of rats of the SD series (body weight=160-280 g; about 8 weeks old), each group consisting of 5 rats, were used. After administration of the test compound, the death or survival was examined during a period of 14 days to determine the LD50 value.

rats of the SD series = experiment: as above; format: in vivo; conditions: female
Excerpt: as §1

[4] = ip, abdominal administration, read-out: LD50, Abdominal Administration, male
[5] = oral, read-out: LD50, Oral Administration, male

Row | Compound | Blood Pressure (mm Hg) on First Day, after 6 hours [1] [mm Hg] | Blood Pressure (mm Hg) on Second Day, after 6 hours [1] [mm Hg] | Blood Pressure (mm Hg) on Second Day, before administration [1] [mm Hg] | Blood Pressure (mm Hg) on Second Day, after 24 hours [2] [mm Hg] | LD50 at 336 h [3, 4] [mg/kg] | LD50 at 336 h [3, 5] [mg/kg] | LD50, Abdominal Administration, female (rats of the SD series) | LD50, Oral Administration, female (rats of the SD series)
1 | O=C(CCc1ccccc1Cl)C1C(=O)CC(c2ccccc2)CC1=O (stereo not drawn) | 200 ± 3 | 213 ± 4 | 208 ± 9 | 193 ± 1 |  |  |  | 
2 | O=C(Cc1ccccc1)C1C(=O)CC(c2ccccc2)CC1=O (stereo not drawn) [drawing 35] |  |  |  |  | > 500 | > 4000 | > 500 | > 4000
3 | O=C(CCc1ccc2c(c1)OCO2)C1C(=O)CC(c2ccccc2)CC1=O (stereo not drawn) [drawing 20] | 205 ± 7 | 204 ± 6 | 218 ± 7 | 207 ± 7 |  |  |  | 
4 | CC1(C)Oc2ccc(CCC(=O)C3C(=O)CC(c4ccccc4)CC3=O)cc2O1 (stereo not drawn) | 207 ± 3 | 190 ± 5 | 202 ± 7 | 192 ± 7 |  |  |  | 
5 | O=C(Cc1ccccc1)C1C(=O)CC(c2ccccc2)CC1=O (stereo not drawn) [drawing 31] | 183 ± 3 | 183 ± 3 | 203 ± 3 | 193 ± 7 |  |  |  | 
6 | COc1ccccc1C1CC(=O)C(C(=O)CCc2ccc3c(c2)OCO3)C(=O)C1 (stereo not drawn) | 210 ± 5 | 205 ± 5 | 220 ± 6 | 220 ± 6 |  |  |  | 
7 | COc1ccc(CCC(=O)C2C(=O)CC(c3ccccc3)CC2=O)cc1 (stereo not drawn) | 209 ± 5 | 210 ± 5 | 213 ± 6 | 212 ± 6 |  |  |  | 
8 | O=C(CCc1ccc(O)c(O)c1)C1C(=O)CC(c2ccccc2)CC1=O (stereo not drawn) | 204 ± 5 | 200 ± 5 | 209 ± 5 | 205 ± 5 |  |  |  | 
9 | COc1ccc(C2CC(=O)C(C(=O)CCc3ccc(O)c(O)c3)C(=O)C2)cc1 (stereo not drawn) | 212 ± 3 | 220 ± 1 | 225 ± 1 | 228 ± 2 |  |  |  | 
10 | O=C(CCc1ccc2c(c1)OCO2)C1C(=O)CC(c2ccccc2)CC1=O (stereo not drawn) [drawing 33] |  |  |  |  | > 500 | > 4000 | > 500 | > 4000
11 | O=C(CCc1ccc2c(c1)OC(c1ccccc1)(c1ccccc1)O2)C1C(=O)CC(c2ccccc2)CC1=O (stereo not drawn) | 202 ± 5 | 192 ± 5 | 210 ± 10 | 208 ± 5 |  |  |  | 
12 | O=C(Cc1ccc(Cl)cc1)C1C(=O)CC(c2ccccc2)CC1=O (stereo not drawn) | 215 ± 1 | 215 ± 2 | 217 ± 4 | 222 ± 4 |  |  |  | 
13 | CC(=O)Oc1ccc(CCC(=O)C2C(=O)CC(c3ccccc3)CC2=O)cc1OC(C)=O (stereo not drawn) | 195 ± 10 | 195 ± 10 | 222± 5 | 212 ± 5 |  |  |  | 
14 | Cc1ccc(C2CC(=O)C(C(=O)CCc3ccc4c(c3)OCO4)C(=O)C2)cc1 (stereo not drawn) [drawing 34] |  |  |  |  | > 500 | > 4000 | > 500 | > 4000
15 | Cc1ccc(C2CC(=O)C(C(=O)CCc3ccc4c(c3)OCO4)C(=O)C2)cc1 (stereo not drawn) [drawing 21] | 198 ± 5 | 188 ± 5 | 200 ± 10 | 192 ± 5 |  |  |  | 
